Literature values, collected in patent EP0243248A1, “Compositions for the treatment of baldness and alopecia” (LABORATOIRES PHARMACEUTIQUES ROCHE-POSAY, priority 1986, dated 1987).

Conditions: for solubilité dans l'eau: water; for solubilité dans l'alcool: alcohol, in words; for solubilité dans les solutions alcalines / en milieu alcalin: alkaline solutions / alkaline medium

SMILES | solubilité dans l'eau | solubilité dans l'alcool | solubilité dans les solutions alcalines / en milieu alcalin | solubilité dans le chloroforme (chloroform) | solubilité dans l'ether (ether)
O=C1NC(=O)C(c2ccccc2)(c2ccccc2)N1 [Phenytoïne, diphényl-5,5 imidazolidinedione-2,4] | pratiquement insoluble | – | – | – | –
CC1=NS(=O)(=O)c2cc(Cl)ccc2N1 [diazoxyde, chloro-7 méthyl-3 benzothiadiazine 1, 2,4 dioxyde-1,1] | insolubles | solubles | solubles | – | –
O=C1NC(=O)C(c2ccccc2)(c2ccccc2)N1 [diphénylhydantoï-nate de sodium] | un peu soluble | un peu soluble | soluble | insoluble | insoluble
